Assay results: PubChem BioAssay (NCI)
Several values for one entry are separate records, joined by “and”; a condition that tells them apart may be missing. Identical values can stand only once.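 Assay format: 96-well plates, 48-hour exposure. Here, GI50 denotes the concentration required for 50% inhibition of growth. TGI: total growth inhibition.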

Each molecule was assayed on MDA-MB-468 breast (assay: inhibition of tumour cell growth, NCI panel, 48 h).

Q: Which GI50 does the source give for `Oc1ccc(Cl)cc1-c1cc(-c2ccc(F)cc2)n[nH]1` here?
A: 1350 nM

Q: And the TGI?
A: 5.35 µM

Q: `Nc1c(C(=O)Nc2cccc(Br)c2)sc2nc3c(cc12)C(O)CCC3` (stereo not given) was tested. Which GI50 did it give?
A: 237 nM

Q: What about the TGI of the same molecule?
A: 31.7 µM

Q: `CC(=O)N1CCN(CCOc2ccc(C3CCN(C4=Nn5c(nnc5C(F)(F)F)CC4)CC3)cc2)CC1` was tested. Which GI50 did it give?
A: 3720 nM

Q: What about the TGI of the same molecule?
A: 61.1 µM

Q: Which GI50 does the source give for `COc1cc([C@@H]2c3cc4c(cc3C(OC3O[C@@H]5COC(C)O[C@H]5[C@H](O)[C@H]3O)C3COC(=O)[C@@H]32)OCO4)cc(OC)c1O` (stereo not given in full) here?
A: 1100 nM

Q: What about the TGI of the same molecule?
A: 4.5 µM

Q: For `O=C(O)C(=O)CBr`, which GI50 is on record?
A: > 48300 nM and 16900 nM

Q: And the TGI?
A: > 72.4 µM and 33.3 µM

Q: How did the GI50 turn out when `O=[N+]([O-])c1cc(F)c2cccnc2c1O` was run?
A: 14700 nM

Q: And the TGI?
A: 47.2 µM

Q: What does the source list for `COc1cccc(C2=C(c3cn(C)c4cccc(OC)c34)C(=O)NC2=O)c1`?
A: GI50: 6880 nM; TGI: > 25 µM

Q: How did the GI50 turn out when `CC[C@H](NC(=O)[C@H](CS(=O)(=O)CC1CC1)N[C@@H](c1ccc(F)cc1)C(F)(F)F)C(=O)C(=O)NC1CC1` was run?
A: 49900 nM

Q: And the TGI?
A: > 100 µM

Q: What does the source list for `CCCCOc1ccc(/C=N/Nc2cc(C)nc3ccc(Cl)cc23)cc1`?
A: GI50: 1530 nM; TGI: 2.97 µM

Q: Which GI50 does the source give for `COc1cc(-c2nn(-c3ccc(NC(=O)c4cc(Cl)cc(Cl)c4)cc3)cc2-c2ccncc2)ccc1Cl` here?
A: > 100000 nM

Q: And the TGI?
A: > 100 µM

Q: With `CC(=O)C1(O)Cc2c(O)c3c(c(O)c2C(OC2CC(N)C(O)C(C)O2)C1)C(=O)c1ccccc1C3=O` (stereo not given) as the molecule, how does the GI50 read?
A: 11.9 nM

Q: And the TGI?
A: 0.0398 µM

Q: `CN(C)CCCOc1c2ccc(Cl)cc2nc2c1oc1ccc(Cl)cc12` was tested. Which GI50 did it give?
A: 2120 nM

Q: What about the TGI of the same molecule?
A: 7.03 µM

Q: Which results are given for `Cn1ncc(-c2ccc3c(=O)[nH]nc(CN)c3c2)c1-c1c(F)cc2ccccc2c1C#N`?
A: GI50: 7020 nM; TGI: 21.1 µM

Q: With `O=[As]c1ccc(C(=O)c2ccc(Oc3ccccc3)cc2)cc1` (stereo not given) as the molecule, how does the GI50 read?
A: 26.6 nM

Q: What about the TGI of the same molecule?
A: 0.101 µM

Q: For `CC(C)(C)C(=O)OCc1nc2cc3c(cc2c(=O)[nH]1)CCC3=O`, which GI50 is on record?
A: > 100000 nM

Q: What about the TGI of the same molecule?
A: > 100 µM

Q: What does the source list for `COc1ccc2[nH]c(O)c(/C=c3/cc4c(c(-c5ccc(F)cc5)n3)=Nc3ccccc3-4)c2c1`?
A: GI50: 2220 nM; TGI: 5.47 µM

Q: Which GI50 does the source give for `COc1ccc(-c2c(N)n[nH]c2-c2cc(OC)c(OC)c(OC)c2)cc1` here?
A: 94.6 nM

Q: And the TGI?
A: 2.87 µM

Q: `O=C(CCl)Nc1cc(O)c2c(c1)C(=O)c1cccc(O)c1C2=O` was tested. Which GI50 did it give?
A: 1040 nM

Q: And the TGI?
A: 2.86 µM

Q: Which GI50 does the source give for `CN1CCN(CCOc2ccc(-c3cnc4c(-c5ccc(F)cc5)cnn4c3)cc2)CC1` here?
A: 1540 nM

Q: What about the TGI of the same molecule?
A: 3.19 µM

Q: Which results are given for `CC(C)(C)Nc1nc2c(OCCc3ccccc3)cccn2c1-c1cccc(F)c1`?
A: GI50: 3510 nM; TGI: 22.9 µM

Q: Which results are given for `CCOc1cc(C(C)(C)C)ccc1C1=N[C@@](C)(c2ccc(Cl)cc2)[C@@](C)(c2ccc(Cl)cc2)N1C(=O)N1CCN(CCS(C)(=O)=O)CC1`?
A: GI50: 2100 nM; TGI: 6.34 µM

Q: `Oc1c(CN2CCOCC2)cc(COCc2ccccc2)c2cccnc12` was tested. Which GI50 did it give?
A: 2390 nM

Q: What about the TGI of the same molecule?
A: 7.19 µM

Q: For `OC(COc1cccc2ccccc12)CN1CCN(c2ccccc2Cl)CC1` (stereo not given), which GI50 is on record?
A: 15300 nM

Q: And the TGI?
A: 30.1 µM

Q: What does the source list for `COc1cccc(-c2cc(=O)c3cc(Cl)cnc3[nH]2)c1`?
A: GI50: 886 nM; TGI: > 100 µM

Q: Which results are given for `c1ccc2nc(OCCN3CC3)ccc2c1`?
A: GI50: 2770 nM; TGI: 7.87 µM

Q: `ClCC#CCSc1ncnc2c1ncn2CC#CCCl` was tested. Which GI50 did it give?
A: 1430 nM

Q: What about the TGI of the same molecule?
A: 3.2 µM

Q: With `CCCn1c(N)c(C(=O)CNc2ccc(I)cc2)c(=O)[nH]c1=O` as the molecule, how does the TGI read?
A: > 100 µM

Q: With `CO[C@H](C(=O)O)[C@@H]1Cc2cc3cc(OC4CC(OC5CC(O)C(O)C(C)O5)C(O)C(C)O4)c(C)c(O)c3c(O)c2C(=O)[C@H]1OC1CC(OC2CC(OC3CC(C)(O)C(O)C(C)O3)C(O)C(C)O2)C(O)C(C)O1` (stereo not given in full) as the molecule, how does the GI50 read?
A: 159 nM

Q: And the TGI?
A: 0.885 µM

Q: With `CCCCCc1c(C)[nH]c(/C=C2\N=C(c3ccc[nH]3)C=C2OCc2ccccc2)c1C` as the molecule, how does the GI50 read?
A: 96.9 nM and 23.5 nM

Q: And the TGI?
A: 0.764 µM and 0.268 µM

Q: For `CC1(C)[C@@H](OC(N)=O)C=C[C@]2(C=O)[C@H]3CC[C@]4(C)[C@@H](c5ccc(=O)oc5)[C@@H](Cl)C[C@]4(O)C3=CC[C@@H]12`, which GI50 is on record?
A: 6.13 nM

Q: And the TGI?
A: 0.0161 µM

Q: `O=C(Nc1ccc(I)cc1F)c1cc(I)ccc1O` was tested. Which GI50 did it give?
A: 808 nM

Q: What about the TGI of the same molecule?
A: 2.46 µM

Q: Which GI50 does the source give for `Cc1c(C(=O)O[C@H]2[C@@H]3[C@H](C)CC[C@H]3[C@]3(C)O[C@@]2(C2CCCCC2)C[C@H]3OC(=O)CO)ccc2ccccc12` here?
A: 8120 nM

Q: And the TGI?
A: 16.1 µM

Q: `CCCCCCNC(=O)Oc1ccc(/C(=C(\C)c2ccccc2)c2ccc(OCCN(CC)CC)cc2)cc1` was tested. Which GI50 did it give?
A: 2920 nM

Q: What about the TGI of the same molecule?
A: 9.72 µM

Q: What does the source list for `COC(=O)[C@]12CC[C@@H](C)[C@H](C)[C@@H]1C1=CC[C@@H]3[C@@]4(C)CC(=O)[C@H](OC(=O)c5ccco5)[C@@]5(C)COC(=C45)C[C@@]3(C)[C@]1(C)CC2`?
A: GI50: 420 nM; TGI: > 100 µM

Q: `C=CCCC(=O)N1C=CC(=O)[C@H](O)[C@@H]1/C=C/c1ccccc1` was tested. Which GI50 did it give?
A: 5120 nM

Q: And the TGI?
A: 22.3 µM

Q: How did the GI50 turn out when `CCOC(=O)c1ccccc1-c1c2ccc(=[N+](C)C)cc-2oc2cc(N(C)C)ccc12` was run?
A: 46.9 nM

Q: And the TGI?
A: 0.41 µM

Q: With `C#Cc1cc2c(N)c(C(=O)c3cc(OC)c(OC)c(OC)c3)[nH]c2cc1OC` as the molecule, how does the GI50 read?
A: 497 nM

Q: And the TGI?
A: 43.2 µM

Q: What does the source list for `CN(C)CCNc1nc2ccccc2c2c(=O)c3ccccc3sc12`?
A: GI50: 1450 nM; TGI: 3.31 µM
